Laboratory results taken from PMC6958422 (Pharmaceuticals, 2019).
Like-named read-outs stand apart in the source and are kept apart here.

Tests used:
hA2B AR [1] = target: T1, hA2B AR (Homo sapiens, UniProt P29275); assay: cAMP assay, stimulation of cAMP production in hA2B CHO cells (agonism); assay type: cell-based; settings: for Emax at 1 µM: CHO, compound at 1µM, in comparison with NECA (1µM = 100%), read-out: Efficacy hA2B (cAMP assays) (converted); for EC50: hA2B CHO cells, means ± SEM of four assays
T1 construct: expressed in transfected cells; host or cells: CHO cells
T1 sequence (P29275 1-332): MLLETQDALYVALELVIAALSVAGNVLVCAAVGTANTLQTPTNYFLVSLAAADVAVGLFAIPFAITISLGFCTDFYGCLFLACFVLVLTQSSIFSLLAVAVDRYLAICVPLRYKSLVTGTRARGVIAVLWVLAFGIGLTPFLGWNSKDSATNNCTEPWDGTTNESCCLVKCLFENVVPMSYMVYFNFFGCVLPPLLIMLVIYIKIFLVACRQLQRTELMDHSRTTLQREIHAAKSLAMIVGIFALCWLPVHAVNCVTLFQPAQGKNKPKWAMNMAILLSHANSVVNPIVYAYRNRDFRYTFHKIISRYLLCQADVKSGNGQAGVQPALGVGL
Method: (§1) The amino-3,5-dicyanopyridines 1–20 were tested for their affinity at hA1, hA2A, and hA3 ARs, stably transfected in Chinese Hamster Ovary (CHO) cells, and were also studied as hA2B agonists by evaluating their stimulatory effect on cAMP production in CHO cells, stably expressing the hA2B AR.
(§2) CHO cells transfected with hA1, hA2A, hA2B, and hA3 ARs were grown adherently and maintained in Dulbecco’s modified Eagle’s medium (Sigma-Aldrich, Milan, Italy) with nutrient mixture F12, containing 10% fetal calf serum, penicillin (100 U/mL), streptomycin (100 μg/mL), l-glutamine (2 mM) and geneticin (G418; 0.2 mg/mL) at 37°C in 5% CO2/95% air until the use in cAMP assays. For membrane preparation, the culture medium was removed, and the cells were washed with phosphate-buffered saline and scraped off T75 flasks in ice-cold hypotonic buffer (5 mM Tris HCl, 1 mM EDTA, pH 7.4). The cell suspension was homogenized with a Polytron, centrifuged for 30 min at 40000 g at 4°C, and the resulting membrane pellet was used for competition binding experiments.
CHO cells transfected with hAR subtypes were washed with phosphate-buffered saline, detached with trypsin and centrifuged for 10 min at 200 g. Cells were seeded in 96-well white half-area microplate (Perkin Elmer, Boston, USA) in a stimulation buffer composed of Hank Balanced Salt Solution (Sigma-Aldrich, Milan, Italy), 5 mM HEPES, 0.5 mM Ro 20-1724, and 0.1% BSA. cAMP levels were then quantified by using the AlphaScreen cAMP Detection Kit (Perkin Elmer) following the manufacturer’s instructions. At the end of the experiments, plates were read with the Perkin Elmer EnSight Multimode Plate Reader.

hA1 AR [2] = target: T2, hA1 AR (Homo sapiens, UniProt P30542); assay: [3H]DPCPX competition binding to hA1 CHO cell membranes
T2 construct: expressed in transfected cells; host or cells: CHO cells
T2 sequence (P30542 1-326): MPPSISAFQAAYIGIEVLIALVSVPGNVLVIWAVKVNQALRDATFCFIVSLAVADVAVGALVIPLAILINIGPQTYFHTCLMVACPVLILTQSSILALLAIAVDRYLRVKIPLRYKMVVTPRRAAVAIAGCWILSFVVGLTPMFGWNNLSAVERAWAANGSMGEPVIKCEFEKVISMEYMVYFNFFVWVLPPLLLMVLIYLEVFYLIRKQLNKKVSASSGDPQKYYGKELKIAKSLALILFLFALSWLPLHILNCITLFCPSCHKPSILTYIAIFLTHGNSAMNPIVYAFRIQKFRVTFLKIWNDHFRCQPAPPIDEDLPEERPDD
Method: as §2
(§3) All synthesized compounds have been tested for their affinity to hA1, hA2A, and hA3 ARs. Competition experiments to hA1 ARs were carried out incubating 1 nM [^3H]-8-cyclopentyl-1,3-dipropylxanthine ([^3H]-DPCPX) with membrane suspension (50 μg of protein/100 μL) and different concentrations of the examined compounds at 25°C for 90 min in 50 mM Tris HCl, pH 7.4. […] Inhibition experiments to hA2A ARs were performed incubating the radioligand [^3H]-ZM241385 (4-(2-[7-Amino-2-(2-furyl)[1,2,4]triazolo[2,3-a][1,3,5]triazin-5-ylamino]ethyl)phenol) (1 nM) with the membrane suspension (50 μg of protein/100 μL) and different concentrations of the examined compounds for 60 min at 4°C in 50 mM Tris HCl (pH 7.4), 10 mM MgCl2. Non-specific binding was determined in the presence of ZM241385 (1 μM) and was about 20% of the total binding. Competition binding experiments to A3 ARs were carried out incubating the membrane suspension (50 μg of protein/100 μL) with 0.5 nM [^125I]-N^6-(4-aminobenzyl)-N-methylcarboxamidoadenosine ([^125I]-ABMECA) in the presence of different concentration of the examined compounds for an incubation time of 120 min at 4°C in 50 mM Tris HCl (pH 7.4), 10 mM MgCl2, and 1 mM EDTA. Non-specific binding was defined as binding in the presence of 1μM ABMECA and was always < 10% of the total binding. Bound and free radioactivity were separated by filtering the assay mixture through Whatman GF/B glass fiber filters using a Brandel cell harvester (Brandel Instruments, Unterföhring, Germany). The filter bound radioactivity was counted by Packard Tri Carb 2810 TR scintillation counter (Perkin Elmer, Boston, MA, USA).
(§4) The protein concentration was determined according to a Bio-Rad method with bovine albumin as a standard reference. Inhibitory binding constant (Ki) values were calculated from those of IC50 according to Cheng & Prusoff equation Ki = IC50/(1+[C*]/KD*), where [C*] is the concentration of the radioligand and KD* its dissociation constant. Ki and IC50 values were calculated by non-linear regression analysis using the equation for a sigmoid concentration-response curve (Graph-PAD Prism, San Diego, CA, USA).

hA2A AR = target: T3, hA2A AR (Homo sapiens, UniProt P29274); assay: [3H]ZM241385 competition binding to hA2A CHO cell membranes; settings: for I% hA2A: percentage of inhibition at 1µM, [3H]ZM241385; for Ki: [3H]ZM241385, hA2A CHO cells, means ± SEM
T3 construct: expressed in transfected cells; host or cells: CHO cells
T3 sequence (P29274 whole entry): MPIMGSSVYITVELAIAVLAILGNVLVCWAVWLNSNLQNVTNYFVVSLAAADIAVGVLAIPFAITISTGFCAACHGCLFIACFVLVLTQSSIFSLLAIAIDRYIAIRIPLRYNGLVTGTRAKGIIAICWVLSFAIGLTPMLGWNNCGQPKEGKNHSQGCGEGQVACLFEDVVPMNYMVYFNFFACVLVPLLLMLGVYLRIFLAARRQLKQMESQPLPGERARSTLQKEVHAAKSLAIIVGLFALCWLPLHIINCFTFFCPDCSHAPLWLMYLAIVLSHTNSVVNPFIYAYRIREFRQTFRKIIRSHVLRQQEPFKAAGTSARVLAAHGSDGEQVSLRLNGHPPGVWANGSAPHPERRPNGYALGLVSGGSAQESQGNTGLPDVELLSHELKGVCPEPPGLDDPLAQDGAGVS
Method: as §2, §3, §4

hA3 AR = target: T4, hA3 AR (Homo sapiens, UniProt P0DMS8); assay: [125I]AB-MECA competition binding to hA3 CHO cell membranes; settings: for inhibition at 1 µM: percentage of inhibition at 1µM; for Ki: hA3 CHO cells, means ± SEM
T4 construct: expressed in transfected cells; host or cells: CHO cells
T4 sequence (P0DMS8 1-318): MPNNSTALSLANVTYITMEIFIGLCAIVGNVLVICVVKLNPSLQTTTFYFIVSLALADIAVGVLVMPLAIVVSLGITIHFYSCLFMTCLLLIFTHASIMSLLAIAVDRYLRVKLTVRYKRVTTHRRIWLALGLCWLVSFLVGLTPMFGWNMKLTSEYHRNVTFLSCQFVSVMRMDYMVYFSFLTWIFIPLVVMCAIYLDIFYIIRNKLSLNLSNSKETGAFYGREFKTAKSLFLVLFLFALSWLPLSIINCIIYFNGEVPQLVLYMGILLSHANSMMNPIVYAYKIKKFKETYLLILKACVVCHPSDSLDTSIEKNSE
Method: as §2, §3, §4

hA1 AR [3] = target: T2, hA1 AR; assay: Modulation of Forskolin-stimulated cAMP levels in hA1 CHO cells; assay type: cell-based; settings: Forskolin 5 µM; for EC50: means ± SEM of four experiments, read-out: EC50 (potency to increase Forskolin-stimulated cAMP levels, hA1 CHO cells); for Efficacy (modulation of Forskolin-stimulated cAMP, hA1 CHO cells): normalized to DPCPX (set at 100%)
Method: as §1
For membrane preparation, the culture medium was removed, and the cells were washed with phosphate-buffered saline and scraped off T75 flasks in ice-cold hypotonic buffer (5 mM Tris HCl, 1 mM EDTA, pH 7.4). The cell suspension was homogenized with a Polytron, centrifuged for 30 min at 40000 g at 4°C, and the resulting membrane pellet was used for competition binding experiments.
CHO cells transfected with hAR subtypes were washed with phosphate-buffered saline, detached with trypsin and centrifuged for 10 min at 200 g. […] At the end of the experiments, plates were read with the Perkin Elmer EnSight Multimode Plate Reader.

hA2B AR [4] = target: T1, hA2B AR; settings: cited from earlier work
A2BAR = test system: A2BAR; parameters: method as in PMID 31132418; settings: rat CA1 hippocampus, cited from earlier work
[5] = at 1µM, in comparison with NECA (1µM = 100%)

SMILES	Emax at 1 µM (hA2B AR [1]) [%]	EC50 (hA2B AR [1]) [nM]	Ki (hA1 AR [2]) [nM]	I% hA2A (hA2A AR) [%]	inhibition at 1 µM (hA3 AR) [%]	EC50 (hA1 AR [3]) [nM]	Efficacy (modulation of Forskolin-stimulated cAMP, hA1 CHO cells) (hA1 AR [3]) [%]	melting point	further results
CCOc1ccc(-c2c(C#N)c(N)nc(SCc3ncc[nH]3)c2C#N)cc1 [Compound 5, 2-(((1H-Imidazol-2-yl)methyl)thio)-6-amino-4-(4-ethoxyphenyl)pyridine-3,5-dicarbonitrile]									Efficacy hA2B (cAMP assays) (hA2B AR [4]; [5]): 62%
N#Cc1c(N)nc(SCc2ncc[nH]2)c(C#N)c1-c1ccc(OCC2CC2)cc1 [Compound P453, 2-{[(1H-imidazol-2-yl)methyl]thio}-6-amino-4-[4-(cyclopropylmethoxy)phenyl]pyridine-3,5-dicarbonitrile]									Efficacy hA2B (cAMP assays) (hA2B AR [4]; [5]): 70%; Effect on PPF (paired pulse facilitation) (A2BAR): decreases PPF; Effect on A1AR-mediated fEPSP inhibition during OGD (A2BAR; two-minute oxygen and glucose deprivation insult): delays A1AR-mediated fEPSP inhibition
CCCn1c(=O)c2[nH]c(C3CCCC3)nc2n(CCC)c1=O [DPCPX, 8-Cyclopentyl-1,3-dipropylxanthine, reference compound]							100 ± 9		
N#Cc1c(N)nc(SCc2ncc[nH]2)c(C#N)c1-c1ccccc1 [LUF5833, 2-amino-6-[(1H-imidazol-2-ylmethyl)sulfanyl]-4-phenylpyridine-3,5-dicarbonitrile]									Efficacy hA2B (cAMP assays) (hA2B AR [4]; in comparison with NECA): 81%

The next lines start with results.

Emax at 1 µM (hA2B AR [1]) [%]	EC50 (hA2B AR [1]) [nM]	Ki (hA1 AR [2]) [nM]	I% hA2A (hA2A AR) [%]	inhibition at 1 µM (hA3 AR) [%]	EC50 (hA1 AR [3]) [nM]	Efficacy (modulation of Forskolin-stimulated cAMP, hA1 CHO cells) (hA1 AR [3]) [%]	melting point	SMILES	further results
56	27 ± 3	16 ± 2	17	8	19.6 ± 1.7	39 ± 4		C=CCOc1ccc(-c2c(C#N)c(N)nc(SCc3ncc[nH]3)c2C#N)cc1 [Compound 3, 2-Amino-6-[(1H-imidazol-2-ylmethyl)sulfanyl]-4-[4-(prop-2-en-1-yloxy)phenyl]pyridine-3,5-dicarbonitrile]	
76	18 ± 2	0.78 ± 0.08			1.34 ± 0.11	34 ± 3	223 to 225 °C (dec.)	N#Cc1c(N)nc(SCc2ncc[nH]2)c(C#N)c1-c1ccc(F)cc1 [Compound 8, 2-Amino-4-(4-fluorophenyl)-6-[(1H-imidazol-2-ylmethyl)sulfanyl]pyridine-3,5-dicarbonitrile]	Ki (hA2A AR): 139 ± 12 nM; Ki (hA3 AR): 410 ± 38 nM
30	36 ± 3	8.32 ± 0.78			8.87 ± 0.64	52 ± 4	257 to 259 °C (dec.)	CSc1ccc(-c2c(C#N)c(N)nc(SCc3ncc[nH]3)c2C#N)cc1 [Compound 11, 2-Amino-6-[(1H-imidazol-2-ylmethyl)sulfanyl]-4-[4-(methylsulfanyl)phenyl]pyridine-3,5-dicarbonitrile]	Ki (hA2A AR): 227 ± 21 nM; Ki (hA3 AR): 388 ± 29 nM
1	> 1000		2	15			248 to 250 °C	COc1ccc(-c2c(C#N)c(N)nc(NCCO)c2C#N)cc1 [Compound 19, 2-Amino-6-[(2-hydroxyethyl)amino]-4-(4-methoxyphenyl)pyridine-3,5-dicarbonitrile]	I% hA1 (hA1 AR [2]; percentage of inhibition at 1µM, [3H]DPCPX): 14%
1	> 1000	987 ± 81	1	5			218 to 220 °C	COC(=O)CSc1nc(N)c(C#N)c(-c2ccc(OC)cc2)c1C#N [Compound 20, Methyl{[6-amino-3,5-dicyano-4-(4-methoxyphenyl)pyridin-2-yl]sulfanyl}acetate]	
